Test results reported in PubChem BioAssay AID192 (DTP/NCI, 2004).
Inconclusive results and toxic doses are left out. Rule for the calls: active = survival T/C of 150% or more; inactive = T/C below 125% in these data. Square brackets hold non-standard residues; d marks the D form. Peptide text beside a SMILES is read from it. ξ: configuration not given here. ξLac(3-iPr) = CC(C)CC(O)C(=O)O; NMeV = CN[CH](C(=O)O)C(C)C; NMeA = CN[CH](C)C(=O)O; βAla = NCCC(=O)O

Tested on: BDF1 mice, B16 melanoma ip, median survival T/C
Experiment: NCI In Vivo Anticancer Drug Screen. Data for tumor model B16 Melanoma (intraperitoneal) in B6D2F1 (BDF1) mice
Settings: endpoint: median survival time, higher = longer survival
Method in brief: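 In this screen, activity was judged from survival or tumor size in treated versus vehicle-treated tumor-bearing mice, reported as T/C.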

[1] = dose: 12.5 mg/kg/injection, schedule: Q01DX009 (ip), vehicle: saline with Tween-80
[2] = dose: 25.0 mg/kg/injection, schedule: Q01DX009 (ip), vehicle: saline with Tween-80
[3] = dose: 50.0 mg/kg/injection, schedule: Q01DX009 (ip), vehicle: saline
[4] = dose: 100.0 mg/kg/injection, schedule: Q01DX009 (ip), vehicle: saline
[5] = dose: 200.0 mg/kg/injection, schedule: Q01DX009 (ip), vehicle: saline
[6] = dose: 50.0 mg/kg/injection, schedule: Q01DX009 (ip), vehicle: Klucel (hydroxypropylcellulose) (HPC)
[7] = dose: 100.0 mg/kg/injection, schedule: Q01DX009 (ip), vehicle: Klucel (hydroxypropylcellulose) (HPC)
[8] = dose: 200.0 mg/kg/injection, schedule: Q01DX009 (ip), vehicle: Klucel (hydroxypropylcellulose) (HPC)
[9] = dose: 50.0 mg/kg/injection, schedule: Q01DX009 (ip), vehicle: saline with Tween-80
[10] = dose: 6.25 mg/kg/injection, schedule: Q01DX009 (ip), vehicle: Klucel (hydroxypropylcellulose) (HPC)
[11] = dose: 25.0 mg/kg/injection, schedule: Q01DX009 (ip), vehicle: Klucel (hydroxypropylcellulose) (HPC)
[12] = dose: 100.0 mg/kg/injection, schedule: Q01DX009 (ip), vehicle: saline with Tween-80
[13] = dose: 200.0 mg/kg/injection, schedule: Q01DX009 (ip), vehicle: saline with Tween-80
[14] = dose: 2.5 mg/kg/injection, schedule: Q01DX009 (ip), vehicle: saline
[15] = dose: 5.0 mg/kg/injection, schedule: Q01DX009 (ip), vehicle: saline

Measured: T/C

CCOC(=O)C(Cc1ccccc1)NP(=O)(OCCCl)OCCCl (centres undefined)
inactive: dose: 100.0 mg/kg/injection, schedule: Q04DX003 (ip), vehicle: Klucel (hydroxypropylcellulose) (HPC) 104 % of control | dose: 200.0 mg/kg/injection, schedule: Q04DX003 (ip), vehicle: Klucel (hydroxypropylcellulose) (HPC) 86 % of control

Nc1ncnc2c1cnn2C1OC(CO)C(O)C1O (centres undefined)
inactive: [1] 113 % of control | [2] 109 % of control

CC(=O)C(N)CCC(=O)O (centres undefined)
inactive: [3] 105 % of control | [4] 113 % of control | [5] 97 % of control

c1ccc(Oc2ccccn2)cc1
inactive: [6] 111 % of control | [7] 117 % of control | [8] 123 % of control

CC1=CC(=O)C=CC1=Nc1ccc(N(C)C)cc1
inactive: [2] 91 % of control | [9] 90 % of control

CCC(=O)[O][Bi]([c]1ccccc1)[c]1ccccc1
inactive: dose: 3.0 mg/kg/injection, schedule: Q01DX009 (ip), vehicle: Klucel (hydroxypropylcellulose) (HPC) 90 % of control | dose: 6.0 mg/kg/injection, schedule: Q01DX009 (ip), vehicle: Klucel (hydroxypropylcellulose) (HPC) 99 % of control | dose: 12.0 mg/kg/injection, schedule: Q01DX009 (ip), vehicle: Klucel (hydroxypropylcellulose) (HPC) 94 % of control | dose: 24.0 mg/kg/injection, schedule: Q01DX009 (ip), vehicle: Klucel (hydroxypropylcellulose) (HPC) 91 % of control

C=Cc1c(C)c2cc3[nH]c(cc4nc(cc5nc(cc1[nH]2)C(C)=C5CCC(=O)O)C(CCC(=O)O)=C4C)c(C)c3C=C
inactive: [10] 97 % of control | dose: 12.5 mg/kg/injection, schedule: Q01DX009 (ip), vehicle: Klucel (hydroxypropylcellulose) (HPC) 104 % of control | [11] 104 % of control | [6] 101 % of control

COc1cc2c(c(OC)c1OC)-c1ccc(OC)c(=O)cc1[C@@H](NC(=O)CF)CC2
inactive: dose: 0.04 mg/kg/injection, schedule: Q01DX009 (ip), vehicle: saline with Tween-80 116 % of control | dose: 0.09 mg/kg/injection, schedule: Q01DX009 (ip), vehicle: saline with Tween-80 118 % of control

CC(C)C(NC(=O)OC(C)(C)C)C(=O)O (centres undefined)
inactive: [11] 123 % of control | [6] 101 % of control

Cc1ccc(NC(=O)c2ccccc2)c(C)c1
inactive: [9] 95 % of control | dose: 50.0 mg/kg/injection, schedule: Q04DX003 (ip), vehicle: saline with Tween-80 97 % of control | [12] 105 % of control | dose: 100.0 mg/kg/injection, schedule: Q04DX003 (ip), vehicle: saline with Tween-80 100 % of control | [13] 92 % of control | dose: 200.0 mg/kg/injection, schedule: Q04DX003 (ip), vehicle: saline with Tween-80 90 % of control

C[As](C)Sc1ncccn1
inactive: dose: 3.13 mg/kg/injection, schedule: Q01DX009 (ip), vehicle: Klucel (hydroxypropylcellulose) (HPC) 100 % of control | [10] 100 % of control

CNC(Cc1ccccc1)c1ccc(OC)c(OC)c1 (centres undefined)
inactive: [7] 100 % of control | [8] 100 % of control | dose: 400.0 mg/kg/injection, schedule: Q01DX009 (ip), vehicle: Klucel (hydroxypropylcellulose) (HPC) 103 % of control

CC(=O)Nc1c(Cl)c(Cl)c2c(c1Cl)Cc1cc(Br)ccc1-2
inactive: dose: 1.5 mg/kg/injection, schedule: Q01DX009 (ip), vehicle: saline with Tween-80 94 % of control | dose: 3.0 mg/kg/injection, schedule: Q01DX009 (ip), vehicle: saline with Tween-80 94 % of control | dose: 6.0 mg/kg/injection, schedule: Q01DX009 (ip), vehicle: saline with Tween-80 100 % of control | dose: 12.0 mg/kg/injection, schedule: Q01DX009 (ip), vehicle: saline with Tween-80 92 % of control | [1] 97 % of control

CC1CC[N-]CC1.CC1CC[N-]CC1.CC1CC[N-]CC1.CC1CC[N-]CC1.CS(C)=O.CS(C)=O.[Cl-].[Cl-].[Cl-].[Cl-].[Pt+4].[Rh+3]
inactive: dose: 0.2 mg/kg/injection, schedule: Q01DX009 (ip), vehicle: water 100 % of control | dose: 0.4 mg/kg/injection, schedule: Q01DX009 (ip), vehicle: water 104 % of control | dose: 0.8 mg/kg/injection, schedule: Q01DX009 (ip), vehicle: water 106 % of control | dose: 1.5 mg/kg/injection, schedule: Q01DX009 (ip), vehicle: water 106 % of control | dose: 3.0 mg/kg/injection, schedule: Q01DX009 (ip), vehicle: water 106 % of control

CCCCC(CCC)(CCN)CCCC
inactive: dose: 1.0 mg/kg/injection, schedule: Q01DX009 (ip), vehicle: saline sonified 102 % of control | dose: 2.0 mg/kg/injection, schedule: Q01DX009 (ip), vehicle: saline sonified 97 % of control | dose: 4.0 mg/kg/injection, schedule: Q01DX009 (ip), vehicle: saline sonified 100 % of control

COC(=O)C1CC(C)(C)N(C)C1(C)C (centres undefined)
inactive: [6] 93 % of control | [7] 94 % of control

N#CC(Br)C(N)=O (centres undefined)
inactive: [14] 93 % of control | [15] 94 % of control

O=C1C=CC(=O)C2=C1CCCC2
inactive: dose: 2.9 mg/kg/injection, schedule: Q01DX009 (ip), vehicle: saline with Tween-80 87 % of control | dose: 4.5 mg/kg/injection, schedule: Q01DX009 (ip), vehicle: saline with Tween-80 87 % of control

O=C1c2ccccc2-c2ncccc21
inactive: [6] 100 % of control | [7] 87 % of control | [8] 96 % of control

CCC(C)C1NC(=O)C2CCCN2C(=O)C(CC(C)C)OC(=O)CCNC(=O)C(C)N(C)C(=O)C(C(C)C)N(C)C1=O (centres undefined) (cyclo([ξLac(3-iPr)]PI[NMeV][NMeA][βAla]); configuration not given here)
inactive: dose: 1.25 mg/kg/injection, schedule: Q01DX009 (ip), vehicle: saline 112 % of control | [14] 111 % of control | [15] 105 % of control | dose: 10.0 mg/kg/injection, schedule: Q01DX009 (ip), vehicle: saline 107 % of control

CC[N+]1(CC)CC[N+]2(CC1)CC[N+]1(CC[N+](CC)(CC)CC1)CC2
inactive: [3] 94 % of control | [4] 100 % of control | [5] 94 % of control

CCCCNC(=O)Nc1ccc(C(=O)OCC(C)C)cc1
inactive: [12] 99 % of control | [13] 96 % of control

CNCCOc1ccccc1
inactive: [2] 110 % of control | [9] 101 % of control | [12] 101 % of control
